Assay results as given in US7820817B2, “Modulators of muscarinic receptors” (Vertex Pharmaceuticals Incorporated, priority 2004, dated 2010).

System: at least one muscarinic receptor, M1, M2, M3, M4
Assay: Muscarinic modulation activity (Table 3)
Assay type: cell-based
Parameters: key: +++: exhibited muscarinic modulation activity for at least one muscarinic receptor, M1, M2, M3, M4, at a concentration of less than 5 μM; ++: exhibited muscarinic modulation activity for at least one muscarinic receptor, M1, M2, M3, M4, at a concentration of between 30 μM and 5 μM; +: exhibited muscarinic modulation activity for at least one muscarinic receptor, M1, M2, M3, M4, at a concentration of greater than 30 μM; −: were not assayed or did not exhibit muscarinic modulation activity for at least one muscarinic receptor, M1, M2, M3, M4, at the concentration at which the assay was performed
Conditions: concentration at which modulation of at least one muscarinic receptor, M1, M2, M3, M4, was exhibited; CHO cells
Protocol: CHO cells expressing muscarinic receptors (M1 to M5) are grown as monolayers in tissue culture flasks at 37° C. in a humidified atmosphere containing 5% CO2 and passaged every 3-5 days. The growth media is Dulbecco's modified eagles medium (DMEM, Gibco Cat#12430-054), containing 25 mM Hepes and supplemented with Fetal Bovine Serum (Hyclone, cat#SH30071.03), 0.1 mM of MEM non-essential amino acids (GIBCO, Cat#11140-050), 1 mM MEM Sodium Pyruvate (GIBCO Cat#11360-070) and 100 units/ml of Penicillin G and 100 μg/ml of Streptomycin (GIBCO Cat#15140-122). The recombinant muscarinic receptor cell lines are grown under antibiotic pressure with media containing 25 μg/ml zeocin and 500 μg/ml G418 (M1-CHO), 4 μg/ml puromycin, 50 μg/ml zeocin and 2.5 μg/ml blasticidin (M2 and M4-CHO) or 50 μg/ml zeocin and 4 μg/ml puromycin (M3 and M5-CHO).
Cells are harvested at 80-90% confluence using Versene (GIBCO Cat#15040-066), collected by centrifugation and seeded 18-24 hrs prior to running the calcium assay at a density of 5,000-10,000 cells/well in […], clear-bottomed 384-well plates (BD Biocoat, poly-D-lysine, Cat#356663). The day of the experiment, the cells are washed with a plate washer (Bioteck Instruments, ELX 405) using bath1 buffer (140-mM NaCl, 4.5-mM KCl, 2-mM CaCl2, 1-mM MgCl2, 10-mM Hepes-Na, 10-mM Glucose, pH 7.4, with NaOH) containing 1 mM Probenecid. Next, the calcium dye Fluo-3 (25 μl/well of Fluo-3 AM at 4 μM, Molecular Probes F-1241, in Bath 1 buffer containing 1 mM Probenecid) is added to the 25 μl of Bath 1 remaining in each well after the plate wash and the dye is loaded at 37° C. in the tissue culture incubator for 60-90 min. The fluorescent dye is removed using the plate washer with Bath 1 containing 1 mM Probenecid, leaving 25 μl/well of this solution after the wash. Alternatively, cells can be loaded with the calcium indicator from Molecular Devices (Calcium 3 Assay Reagents, Cat #R7181) adding 5 μl of a 5× solution dye in Bath 1 containing 1 mM Probenecid (10 ml per dye flask cat#R7182 to generate a solution […]) to 20 μl of the same buffer. After loading for 60 min. the experiment can be run without having to remove the dye.
Compounds are prepared at a 2× fold concentration in a 96-well plate (round bottom, Costar Corning cat#3656), by reconstituting the pre-spotted compounds in bath 1 containing 1 mM probenecid. The final concentration DMSO is 0.5%, and the amount of DMSO is normalized across the assay plate. To determine an agonist action of the compounds on muscarinic receptors, the reconstituted compounds are added (25 μl compound/well) to the cell assay plate (containing 25 μl/well) using the multi-channel robotic system of the FLIPR 3 Instrument (Molecular Devices, Sunnyvale, Calif.). To determine a functional inhibitory action of the compounds on muscarinic receptors, the reconstituted compounds are added (25 μl compound/well) to the assay plate and pre-incubated for 15 min prior to adding 25 μl of Carbachol at 3× the EC80 for each muscarinic subtype. Alternatively, the compounds can be co-applied simultaneously with the agonist. In both assay modes, the fluorescence is recorded for 60 sec (excitation wavelength is […] and emission wavelength 540 nm) using the FLIPR 3 instrument.
The potency, efficacy and selectivity of the muscarinic compounds were evaluated by screening the compound activity across the whole family (M1 to M5 cells).
CHO cells expressing muscarinic receptors (M1 to M5) and containing a gene reporter system β-Lactamase) with transcriptional control mediated by calcium release (NFAT activation). See Zlokarnik, G; Negulescu, P. A.; Knapp, T. E.; Mere, L; Burres, N; Feng, L; Whitney, M; Roemer, K; Tsien, R. Y. Quantitation of transcription and clonal selection of single living cells with β-lactamase as reporter. Science, 1998 Jan. 2, 279(5347):84-8. The cells are grown as monolayers in tissue culture flasks at 37° C. in a humidified atmosphere containing 5% CO2 and passaged every 3-5 days. […]

Structure (SMILES)	ACTIVITY (muscarinic modulation activity)
N#Cc1nccnc1N1CCN(CC2CCC3CCC2C3)CC1 (centres unmarked) [Compound 23, 3-[4-(4-bicyclo[3.2.1]octylmethyl)piperazin-1-yl]pyrazine-2-carbonitrile]	−
CCOC(=O)N1C2CCC1CC(N1CCN(c3nc(C(F)(F)F)ccc3C#N)CC1)C2 (centres unmarked) [Compound 24, 3-[4-[3-cyano-6-(trifluoromethyl)-2-pyridyl]piperazin-1-yl]-8-azabicyclo[3.2.1]octane-8-carboxylic acid ethyl ester]	+++ (exhibited muscarinic modulation activity for at least one muscarinic receptor, M1, M2, M3, M4, at a concentration of less than 5 μM)
CCOC(=O)N1C2CCC1CC(N1CCN(c3ccncc3)CC1)C2 (centres unmarked) [Compound 25, 3-[4-(4-pyridyl)piperazin-1-yl]-8-azabicyclo[3.2.1]octane-8-carboxylic acid ethyl ester]	+++ (exhibited muscarinic modulation activity for at least one muscarinic receptor, M1, M2, M3, M4, at a concentration of less than 5 μM)
Clc1cncc(Cl)c1N1CCN(CC2CC3C=CC2C3)CC1 (centres unmarked) [Compound 26, 1-(5-bicyclo[2.2.1]hept-2-enylmethyl)-4-(3,5-dichloro-4-pyridyl)-piperazine]	−
N#Cc1cccnc1N1CCN(C2CC3CCC(C3)C2)CC1 (centres unmarked) [Compound 27, 2-[4-(3-bicyclo[3.2.1]octyl)piperazin-1-yl]nicotinonitrile]	+ (exhibited muscarinic modulation activity for at least one muscarinic receptor, M1, M2, M3, M4, at a concentration of greater than 30 μM)
CCOC(=O)N1C2CCC1CC(N1CCN(c3ccc(C(F)(F)F)cn3)CC1)C2 (centres unmarked) [Compound 28, 3-[4-[5-(trifluoromethyl)-2-pyridyl]piperazin-1-yl]-8-azabicyclo[3.2.1]octane-8-carboxylic acid ethyl ester]	+++ (exhibited muscarinic modulation activity for at least one muscarinic receptor, M1, M2, M3, M4, at a concentration of less than 5 μM)
CCOC(=O)N1C2CCC1CC(N1CCC(n3nnc4ccccc43)CC1)C2 (centres unmarked) [Compound 29, 3-[4-(1H-benzotriazol-1-yl)-1-piperidyl]-8-azabicyclo[3.2.1]octane-8-carboxylic acid ethyl ester]	+++ (exhibited muscarinic modulation activity for at least one muscarinic receptor, M1, M2, M3, M4, at a concentration of less than 5 μM)
CCOC(=O)N1C2CCC1CC(N1CCN(c3ncccc3F)CC1)C2 (centres unmarked) [Compound 30, 3-[4-(3-fluoro-2-pyridyl)piperazin-1-yl]-8-azabicyclo[3.2.1]octane-8-carboxylic acid ethyl ester]	+++ (exhibited muscarinic modulation activity for at least one muscarinic receptor, M1, M2, M3, M4, at a concentration of less than 5 μM)
Cc1ccc(C#N)c(N2CCN(C3CC4CCC3C4)CC2)n1 (centres unmarked) [Compound 31, 6-methyl-2-(4-norbornan-2-ylpiperazin-1-yl)-nicotinonitrile]	++ (exhibited muscarinic modulation activity for at least one muscarinic receptor, M1, M2, M3, M4, at a concentration of between 30 μM and 5 μM)
N#Cc1cccnc1N1CCN(C2CC3CCC2C3)CC1 (centres unmarked) [Compound 32, 2-(4-norbornan-2-ylpiperazin-1-yl)nicotinonitrile]	+ (exhibited muscarinic modulation activity for at least one muscarinic receptor, M1, M2, M3, M4, at a concentration of greater than 30 μM)
CCOC(=O)N1C2CCC1CC(N1CCN(c3ncc(-c4ccccc4)cc3C#N)CC1)C2 (centres unmarked) [Compound 33, 3-[4-(3-cyano-5-phenyl-2-pyridyl)piperazin-1-yl]-8-azabicyclo[3.2.1]octane-8-carboxylic acid ethyl ester]	+ (exhibited muscarinic modulation activity for at least one muscarinic receptor, M1, M2, M3, M4, at a concentration of greater than 30 μM)
